# Read-outs that look alike come from different tables or passages of the source.
# Key:
# Test in all cases: Eurofins kinase selectivity profile against 380 other human recombinant kinases (Table S2)
# Type in all cases: biochemical
# [1] = molecular target: T1, 380 human recombinant protein kinases (Homo sapiens, UniProt Q9P286); conditions: PAK5(h), read-out: Inhibition rate
# T1 construct: purchased Eurofins (Celle Lévescault)
# How it was run: (§1)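 Commercial selectivity screen of the test compound against a panel of 380 human recombinant protein kinases, run by an outside contractor at several compound concentrations to check whether its potency was specific for MK2.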
# [2] = molecular target: T2, 380 human recombinant protein kinases (Homo sapiens, UniProt Q9HBY8); conditions: SGK2(h), read-out: Inhibition rate (%)
# T2 construct: purchased Eurofins (Celle Lévescault)
# T2 sequence (Q9HBY8 1-367): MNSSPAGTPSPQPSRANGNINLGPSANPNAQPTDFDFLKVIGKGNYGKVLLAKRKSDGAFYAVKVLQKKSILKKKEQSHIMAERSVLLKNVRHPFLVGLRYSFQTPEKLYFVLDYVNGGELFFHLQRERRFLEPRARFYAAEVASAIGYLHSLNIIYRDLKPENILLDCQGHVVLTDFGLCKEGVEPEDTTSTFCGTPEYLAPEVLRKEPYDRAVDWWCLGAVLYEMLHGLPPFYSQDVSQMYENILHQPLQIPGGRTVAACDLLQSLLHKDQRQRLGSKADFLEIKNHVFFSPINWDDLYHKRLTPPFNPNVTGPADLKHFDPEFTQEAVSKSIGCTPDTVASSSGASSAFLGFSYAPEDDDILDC
# How it was run: as §1
# [3] = molecular target: T3, 380 human recombinant protein kinases (Homo sapiens, UniProt Q13237); conditions: PRKG2(h), read-out: Inhibition rate
# T3 construct: purchased Eurofins (Celle Lévescault)
# T3 sequence (Q13237 1-762): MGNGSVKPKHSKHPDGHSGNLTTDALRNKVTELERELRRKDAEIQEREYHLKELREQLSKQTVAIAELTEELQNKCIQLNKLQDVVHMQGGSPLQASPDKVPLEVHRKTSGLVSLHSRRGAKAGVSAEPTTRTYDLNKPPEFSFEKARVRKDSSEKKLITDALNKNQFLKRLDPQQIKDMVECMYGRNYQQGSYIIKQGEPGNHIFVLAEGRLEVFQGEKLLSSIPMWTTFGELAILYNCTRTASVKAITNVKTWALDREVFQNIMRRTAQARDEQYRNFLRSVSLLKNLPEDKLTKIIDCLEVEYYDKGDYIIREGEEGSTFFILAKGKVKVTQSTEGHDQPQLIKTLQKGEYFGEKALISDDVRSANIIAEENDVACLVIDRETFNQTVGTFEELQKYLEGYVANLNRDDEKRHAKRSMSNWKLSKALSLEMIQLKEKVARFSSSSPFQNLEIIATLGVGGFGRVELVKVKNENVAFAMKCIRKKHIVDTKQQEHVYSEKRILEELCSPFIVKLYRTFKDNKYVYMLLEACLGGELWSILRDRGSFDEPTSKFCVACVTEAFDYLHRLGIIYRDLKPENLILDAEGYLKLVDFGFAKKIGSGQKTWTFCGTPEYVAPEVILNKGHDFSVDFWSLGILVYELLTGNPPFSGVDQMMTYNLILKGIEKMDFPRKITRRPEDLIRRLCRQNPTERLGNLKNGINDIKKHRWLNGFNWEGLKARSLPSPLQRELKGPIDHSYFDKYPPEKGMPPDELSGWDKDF
# How it was run: as §1
# [4] = molecular target: T4, 380 human recombinant protein kinases (Homo sapiens, UniProt P53350); conditions: Plk1(h), read-out: Inhibition rate
# T4 construct: purchased Eurofins (Celle Lévescault)
# T4 sequence (P53350 whole entry): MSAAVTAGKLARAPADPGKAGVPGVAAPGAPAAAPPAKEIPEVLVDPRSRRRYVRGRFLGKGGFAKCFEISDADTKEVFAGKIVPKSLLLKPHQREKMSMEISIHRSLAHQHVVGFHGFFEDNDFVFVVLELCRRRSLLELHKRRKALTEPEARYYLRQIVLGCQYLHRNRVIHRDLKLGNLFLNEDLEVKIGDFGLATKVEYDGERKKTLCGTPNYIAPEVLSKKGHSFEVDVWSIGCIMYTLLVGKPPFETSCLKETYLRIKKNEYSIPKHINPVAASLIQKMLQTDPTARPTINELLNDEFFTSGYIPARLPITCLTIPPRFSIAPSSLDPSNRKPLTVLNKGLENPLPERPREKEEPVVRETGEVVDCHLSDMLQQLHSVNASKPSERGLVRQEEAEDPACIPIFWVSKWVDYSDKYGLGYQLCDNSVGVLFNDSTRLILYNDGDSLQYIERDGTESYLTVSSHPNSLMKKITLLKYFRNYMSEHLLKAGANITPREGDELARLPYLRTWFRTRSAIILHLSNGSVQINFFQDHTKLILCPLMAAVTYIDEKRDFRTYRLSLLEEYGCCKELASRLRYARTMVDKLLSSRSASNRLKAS
# How it was run: as §1
# [5] = molecular target: T5, 380 human recombinant protein kinases (Homo sapiens, UniProt P24941); conditions: read-out: Inhibition rate; for inhibition at 0.01 µM: 10 nM; for inhibition at 0.1 µM: 100 nM; for inhibition at 1 µM: 1000 nM
# T5 construct: purchased Eurofins (Celle Lévescault)
# How it was run: as §1
# [6] = molecular target: T6, 380 human recombinant protein kinases (Homo sapiens, UniProt Q99755); conditions: PIP5K1α(h), read-out: Inhibition rate (%)
# T6 construct: purchased Eurofins (Celle Lévescault)
# T6 sequence (Q99755 whole entry): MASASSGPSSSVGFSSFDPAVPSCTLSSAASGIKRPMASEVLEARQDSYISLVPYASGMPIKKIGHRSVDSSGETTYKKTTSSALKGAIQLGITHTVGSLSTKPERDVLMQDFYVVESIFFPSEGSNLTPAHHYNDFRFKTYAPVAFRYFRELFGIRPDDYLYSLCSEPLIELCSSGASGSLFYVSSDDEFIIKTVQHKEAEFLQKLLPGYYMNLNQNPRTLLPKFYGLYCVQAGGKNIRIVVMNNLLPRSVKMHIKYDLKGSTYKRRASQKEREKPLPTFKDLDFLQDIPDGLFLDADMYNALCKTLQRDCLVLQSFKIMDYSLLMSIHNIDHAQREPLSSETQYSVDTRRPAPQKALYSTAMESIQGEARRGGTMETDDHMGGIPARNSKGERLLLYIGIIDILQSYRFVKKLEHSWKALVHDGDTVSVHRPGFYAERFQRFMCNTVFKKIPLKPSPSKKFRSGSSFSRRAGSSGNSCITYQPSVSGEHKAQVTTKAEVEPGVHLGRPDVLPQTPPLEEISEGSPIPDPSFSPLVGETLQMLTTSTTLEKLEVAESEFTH
# How it was run: as §1
# [7] = molecular target: T7, 380 human recombinant protein kinases (Homo sapiens, UniProt Q13546); conditions: RIPK1(h), read-out: Inhibition rate
# T7 construct: purchased Eurofins (Celle Lévescault)
# T7 sequence (Q13546 1-671): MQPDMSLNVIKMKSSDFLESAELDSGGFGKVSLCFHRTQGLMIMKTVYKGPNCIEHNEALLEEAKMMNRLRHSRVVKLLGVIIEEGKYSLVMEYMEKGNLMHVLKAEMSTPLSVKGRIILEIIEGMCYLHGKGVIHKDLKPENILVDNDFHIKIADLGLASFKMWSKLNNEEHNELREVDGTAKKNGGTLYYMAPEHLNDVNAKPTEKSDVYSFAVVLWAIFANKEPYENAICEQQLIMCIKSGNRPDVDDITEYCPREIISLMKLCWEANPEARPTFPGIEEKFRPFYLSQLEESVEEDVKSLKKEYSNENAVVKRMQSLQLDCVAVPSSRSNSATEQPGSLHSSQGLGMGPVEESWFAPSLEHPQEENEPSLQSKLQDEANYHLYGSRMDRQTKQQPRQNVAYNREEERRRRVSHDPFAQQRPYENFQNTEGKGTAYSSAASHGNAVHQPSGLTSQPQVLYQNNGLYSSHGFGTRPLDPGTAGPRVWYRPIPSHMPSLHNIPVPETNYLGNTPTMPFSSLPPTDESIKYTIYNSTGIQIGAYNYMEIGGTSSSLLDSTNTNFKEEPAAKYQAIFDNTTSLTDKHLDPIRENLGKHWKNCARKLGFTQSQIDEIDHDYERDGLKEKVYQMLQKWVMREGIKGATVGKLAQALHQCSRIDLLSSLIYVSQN
# How it was run: as §1
# T1 sequence (Q9P286 whole entry): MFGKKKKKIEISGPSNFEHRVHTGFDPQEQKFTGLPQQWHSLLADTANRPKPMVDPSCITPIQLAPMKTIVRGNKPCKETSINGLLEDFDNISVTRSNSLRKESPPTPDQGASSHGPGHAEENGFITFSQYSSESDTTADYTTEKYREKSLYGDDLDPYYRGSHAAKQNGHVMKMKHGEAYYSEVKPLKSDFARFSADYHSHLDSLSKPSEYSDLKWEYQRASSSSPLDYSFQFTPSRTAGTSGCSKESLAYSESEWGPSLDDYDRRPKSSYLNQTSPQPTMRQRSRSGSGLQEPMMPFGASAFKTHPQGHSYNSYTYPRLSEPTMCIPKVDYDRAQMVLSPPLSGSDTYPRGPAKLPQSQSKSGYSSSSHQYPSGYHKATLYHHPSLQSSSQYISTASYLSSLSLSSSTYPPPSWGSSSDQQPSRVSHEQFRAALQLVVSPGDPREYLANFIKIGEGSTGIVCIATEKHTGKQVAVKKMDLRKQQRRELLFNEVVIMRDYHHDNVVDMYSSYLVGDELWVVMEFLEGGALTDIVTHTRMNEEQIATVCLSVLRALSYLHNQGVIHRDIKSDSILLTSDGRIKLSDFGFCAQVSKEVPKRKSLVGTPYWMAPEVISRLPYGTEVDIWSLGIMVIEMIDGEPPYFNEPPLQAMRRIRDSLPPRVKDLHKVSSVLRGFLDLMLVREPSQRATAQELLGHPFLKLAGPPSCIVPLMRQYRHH
structure (smiles),measurement,setting,value
C=CC(=O)Nc1cc(-c2cc(-c3cc4c([nH]3)CCNC4=O)ccn2)ccc1OC(F)(F)F [compound 11],inhibition at 0.01 µM,[1]; 10 nM,-2%
same,inhibition at 0.1 µM,[1]; 100 nM,-2%
same,inhibition at 1 µM,[1]; 1000 nM,-2%
same,inhibition at 0.01 µM,[2]; 10 nM,-10%
same,inhibition at 0.1 µM,[2]; 100 nM,-7%
same,inhibition at 1 µM,[2]; 1000 nM,0%
same,inhibition at 0.01 µM,[3]; 10 nM,7%
same,inhibition at 0.1 µM,[3]; 100 nM,19%
same,inhibition at 1 µM,[3]; 1000 nM,35%
same,inhibition at 0.01 µM,[4]; 10 nM,13%
same,inhibition at 0.1 µM,[4]; 100 nM,15%
same,inhibition at 1 µM,[4]; 1000 nM,13%
same,inhibition at 0.01 µM,[5]; CDK2/cyclinA(h),-5%
same,inhibition at 0.1 µM,[5]; CDK2/cyclinA(h),0%
same,inhibition at 1 µM,[5]; CDK2/cyclinA(h),7%
same,inhibition at 0.01 µM,[5]; CDK2/cyclinE(h),-3%
same,inhibition at 0.1 µM,[5]; CDK2/cyclinE(h),1%
same,inhibition at 1 µM,[5]; CDK2/cyclinE(h),-1%
same,inhibition at 0.01 µM,[6]; 10 nM,-4%
same,inhibition at 0.1 µM,[6]; 100 nM,-3%
same,inhibition at 1 µM,[6]; 1000 nM,-2%
same,inhibition at 0.01 µM,[7]; 10 nM,-7%
same,inhibition at 0.1 µM,[7]; 100 nM,-3%
same,inhibition at 1 µM,[7]; 1000 nM,3%
